Measured values: patent publication US20260041639A1, “GEPOTIDACIN FORMULATION” (GLAXOSMITHKLINE INTELLECTUAL PROPERTY DEVELOPMENT LIMITED, priority 2022, published 2026)
≈ marks a conversion by molar mass, not a printed value.

Experiment: Solubility of API in water
Assay type: physicochemical
Settings: 25 °C
Description: The skilled reader will readily appreciate that the granules of the disclosure rapidly disperse. It is therefore apparent that the physical properties of the API and in particular its solubility will have no impact on the dispersion time.

SMILES | solubility [mg/mL]
C[C@H]1CO[C@@H]2Cn3cc(C(=O)NCc4ccc(F)cc4F)c(=O)c(O)c3C(=O)N12 [cabotegravir, (3R,6S)—N-[(2,4-difluorophenyl)methyl]-10-hydroxy-6-methyl-8,11-dioxo-4-oxa-1,7-diazatricyclo[7.4.0.03,7]trideca-9,12-diene-12-carboxamide] | 2.9 (≈ 7.15 mM)
O=c1ccc2ncc(=O)n3c2n1C[C@H]3CN1CCC(NCc2cc3c(cn2)OCCC3)CC1 [gepotidacin, (2R)-2-({4-[(3,4-Dihydro-2H-pyrano[2,3-c]pyridin-6-ylmethyl)amino]-1-piperidinyl}methyl)-1,2-dihydro-3H,8H-2a,5,8a-triazaacenaphthylene-3,8-dione] | 175 (≈ 390 mM)
